Legend:
CDK2:Cyclin-E = CDK2:Cyclin-E (Homo sapiens, UniProt P24941); experiment: CDK2 Screening Assay (33P-ATP FlashPlate); assay type: biochemical; conditions: 10 μM ATP; >10 or >100 = less than 50% inhibition at highest concentration tested
Description: A kinase reaction mixture was prepared containing 50 mM Tris-HCl pH=8, 10 mM MgCl2, 0.1 mM Na3PO4, 1 mM DTT, 10 μM ATP, 0.025 μM biotinylated histone-H1 peptide substrate and 0.2 μCuries per well ^33P-γ-ATP (2000-3000 Ci/mmol). 70 μL of the kinase reaction mixture was dispensed into the well of a streptavidin coated FlashPlate™ (Cat. # SMP103, NEN, Boston, Mass.). Then 1 μL of test compound stock in 100% DMSO was added to the wells resulting in a final concentration of 1% DMSO in the reaction with a 100 μl final reaction volume. Next, CDK2:Cyclin-E protein was diluted in 50 mM Tris-HCl pH=8.0, 0.1% BSA at a concentration of 1 ng per μL and 30 μL (30 ng enzyme per test well) was added to each well to initiate the reaction. The reaction was incubated for one hour at 30° C. At the end of the 1 h incubation, the reaction was terminated by aspirating the mixture from the plate and washing the wells twice with PBS containing 100 mM EDTA. The histone-H1 biotinylated peptide substrate became immobilized on the Flashplate™ and the incorporation of ^33P-γ-ATP was measured by reading the plate on a scintillation counter. Inhibition of the enzymatic activity of CDK2 was measured by observing a reduced amount of ^33P-γ-ATP incorporated into the immobilized peptide. […]

VEGF-R2 kinase = target: T1, VEGF-R2 kinase (Rattus norvegicus, UniProt O08775); experiment: VEGF-R2 Kinase Screening Assay; assay type: biochemical; conditions: 10 μM ATP; rat VEGF-R2 kinase domain; read-out: IC50 (μM) VEGFR
T1 construct: 6xHis (polyhistidine) (N)
Description: A kinase reaction mixture was prepared containing 50 mM Tris-HCl pH=8, 10 mM MgCl2, 0.1 mM Na3PO4, 1 mM DTT, 10 μM ATP, 0.025 μM biotinylated peptide substrate and 0.8 μCuries per well ^33P-γ-ATP (2000-3000 Ci/mmol). 70 μL of the kinase reaction mixture was dispensed into each well of a streptavidin coated FlashPlate™ (Cat. # SMP103, NEN, Boston, Mass.). Then 1 μL of test compound stock in 100% DMSO was added to the wells resulting in a final concentration of 1% DMSO in the reaction with a 100 μL final reaction volume. Next, soluble rat tyrosine kinase containing an N-terminal 6×HIS tag was diluted in 50 mM Tris-HCl pH=8.0, 0.1% BSA at a concentration of 5 ng per μL and 30 μL (150 ng enzyme per test well) was added to each well to initiate the reaction. The reaction was incubated for one hour at 30° C. At the end of the 1 h incubation, the reaction was terminated by aspirating the reaction mixture from the plate and washing the wells twice with PBS containing 100 mM EDTA. The PLC1 biotinylated peptide substrate became immobilized on the Flashplate™ and the incorporation of ^33P-γ-ATP was measured by reading the plate on a scintillation counter. Inhibition of the enzymatic activity of the VEGF-R2 kinase was measured by observing a reduced amount of ^33P-γ-ATP incorporated into the immobilized peptide.
(§1) VEGF-R (vascular endothelial growth factor receptor-2) is a fusion protein containing a polyhistidine tag at the N-terminus followed by amino acids 786-1343 of the rat VEGF-R2 kinase domain (GenBank Accession #U93306). CDK1 (cyclin dependent kinase 1) was isolated from insect cells expressing both the human CDK1 catalytic subunit and its positive regulatory subunit cyclin B (New England Biolabs, Beverly, Mass., Cat. # 6020). CDK2 in complex with cyclin A is commercially available (Upstate Biotech, Lake Placid, N.Y.). The HER2 (human epidermal growth factor receptor-2) construct contains a polyhistidine tag at the N-terminus followed by 24 additional amino acids and begins at amino acid 676 followed by the remainder of the HER2 cytoplasmic domain.

HER2 = target: T2, HER2 (Homo sapiens, UniProt P04626); experiment: HER2 Kinase Screening Assay; assay type: biochemical; conditions: 10 μM ATP; >10 or >100 = less than 50% inhibition at highest concentration tested
T2 construct: polyhistidine (N)
Description: The HER2 kinase assay was carried out as described above for the VEGF-R kinase assay except that the enzyme was replaced with a human epidermal growth factor receptor-2 (HER2) construct contains a polyhistidine tag at the N-terminus followed by 24 additional amino acids and begins at amino acid 676 (Accession #M11730) followed by the remainder of the HER2 cytoplasmic domain.
as §1

HCT-116 colon carcinoma = experiment: Inhibition of cell proliferation (14C-thymidine incorporation), HCT116; assay type: cell-based, human; conditions: Homo sapiens, HCT-116
Description: (§2) The ability of a test compound to inhibit the proliferation of cell growth was determined by measuring incorporation of ^14C-labelled thymidine into newly synthesized DNA within the cells. This method was used on cell lines derived from carcinomas originating from several tissues such as HeLa cervical adenocarcinoma (American Type Culture Collection (ATCC), Virginia, Cat. #CCL-2), A375 malignant melanoma (ATCC CRL-1619), and HCT-116 colon carcinoma (CCL-247). In this way the effect of a compound on cell growth of cells with many different phenotypes can be determined. Cells were trypsinized and counted and 3000-8000 cells were added to each well of a 96-well CytoStar tissue culture treated scintillating microplate (Amersham #RPNQ0160) in complete medium in a volume of 100 μl. Cells were incubated for 24 hours in complete medium at 37° C. in an atmosphere containing 5% CO2.
(§3) Next, 1 μl of test compound in 100% DMSO was added to the wells of the plate. DMSO only was added to control wells. Cells were incubated for 24 more hours in complete medium at 37° C. in an atmosphere containing 5% CO2. Methyl ^14C-thymidine 56 mCi/mmol (NEN #NEC568 or Amersham #CFA532) was diluted in complete medium and 0.2 uCi/well was added to each well of the CytoStar plate in a volume of 20 ul. The plate was incubated for 24 hours at 37° C. plus 5% CO2 in drug plus ^14C-thymidine. The contents of the plate were discarded into a ^14C radioactive waste container by inverting the plate and the plate was washed twice with 200 μl PBS.
(§4) 200 μl of PBS was added to each well. The top of the plate was sealed with a transparent plate sealer and a white plate backing sealer (Packard #6005199) was applied to the bottom of the plate. The degree of methyl ^14C-thymidine incorporation was quantified on a Packard Top Count.

A375 malignant melanoma = experiment: Inhibition of cell proliferation (14C-thymidine incorporation), A375; assay type: cell-based, human; conditions: Homo sapiens, A-375
Description: as §2, §3, §4

T2 sequence (P04626 676-1255 limits assumed): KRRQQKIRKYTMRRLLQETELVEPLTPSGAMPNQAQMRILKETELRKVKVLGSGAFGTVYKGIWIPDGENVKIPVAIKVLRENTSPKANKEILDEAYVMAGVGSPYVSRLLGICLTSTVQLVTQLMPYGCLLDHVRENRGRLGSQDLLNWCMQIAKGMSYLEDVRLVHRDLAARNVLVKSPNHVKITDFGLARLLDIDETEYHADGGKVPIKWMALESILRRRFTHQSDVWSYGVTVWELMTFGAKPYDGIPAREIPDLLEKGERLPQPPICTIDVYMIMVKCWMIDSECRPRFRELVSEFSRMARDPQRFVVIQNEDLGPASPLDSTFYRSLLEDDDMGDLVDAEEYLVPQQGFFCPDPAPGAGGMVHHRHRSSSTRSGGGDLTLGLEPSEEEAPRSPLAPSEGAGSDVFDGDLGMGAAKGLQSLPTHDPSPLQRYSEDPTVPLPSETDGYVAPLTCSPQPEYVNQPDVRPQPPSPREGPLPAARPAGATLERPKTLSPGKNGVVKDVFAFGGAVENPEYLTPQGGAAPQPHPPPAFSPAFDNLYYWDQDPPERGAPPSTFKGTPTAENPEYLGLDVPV
T1 sequence (O08775 786-1343): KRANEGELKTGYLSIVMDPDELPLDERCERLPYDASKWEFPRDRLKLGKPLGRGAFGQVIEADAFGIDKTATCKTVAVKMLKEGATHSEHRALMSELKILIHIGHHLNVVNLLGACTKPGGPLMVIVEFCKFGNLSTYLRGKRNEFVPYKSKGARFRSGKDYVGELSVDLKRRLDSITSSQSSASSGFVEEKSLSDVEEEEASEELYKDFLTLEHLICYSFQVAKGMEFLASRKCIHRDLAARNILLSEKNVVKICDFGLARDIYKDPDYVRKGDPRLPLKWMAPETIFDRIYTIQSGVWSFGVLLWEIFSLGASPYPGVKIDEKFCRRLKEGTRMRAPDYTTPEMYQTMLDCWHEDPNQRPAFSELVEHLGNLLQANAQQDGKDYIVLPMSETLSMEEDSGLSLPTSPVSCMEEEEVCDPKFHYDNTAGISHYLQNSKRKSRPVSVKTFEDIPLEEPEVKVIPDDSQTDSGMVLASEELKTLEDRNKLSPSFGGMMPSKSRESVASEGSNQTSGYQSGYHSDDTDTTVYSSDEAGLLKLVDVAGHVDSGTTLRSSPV

Row | SMILES | IC50 (CDK2:Cyclin-E) [µM] | IC50 (VEGF-R2 kinase) [µM] | IC50 (HER2) [µM] | IC50 (HCT-116 colon carcinoma) [µM] | IC50 (A375 malignant melanoma) [µM]
1 | C[C@@H](N)C(=O)NS(=O)(=O)c1ccc(Nc2nc(N)n(C(=O)c3c(F)cccc3F)n2)cc1 [Compound 14, 4-[5-amino-1-(2,6-difluoro-benzoyl)-1H-[1,2,4]triazol-3-ylamino]-N—((R)-2-amino-propionyl)-benzenesulfonamide] | 0.06 | 0.89 | ≥ 10 | 38.5 | 71.1
2 | C[C@H](N)C(=O)N[C@@H](C)C(=O)NS(=O)(=O)c1ccc(Nc2nc(N)n(C(=O)c3c(F)cccc3F)n2)cc1.O=C(O)C(F)(F)F.O=C(O)C(F)(F)F.O=C(O)C(F)(F)F [Compound 15, (S)-2-amino-N—((S)-2-{4-[5-amino-1-(2,6-difluoro-benzoyl)-1H-[1,2,4]triazol-3-ylamino]-benzenesulfonylamino}-1-methyl-2-oxo-ethyl)-propionamide 3 TFA salt] | 0.1 | 2.03 | ≥ 10 | 20.8 | 12.1
3 | Nc1nc(Nc2ccc(S(=O)(=O)NC(=O)[C@@H]3CCCN3)cc2)nn1C(=O)c1c(F)cccc1F [Compound 16, 4-[5-amino-1-(2,6-difluoro-benzoyl)-1H-[1,2,4]triazol-3-ylamino]-N—((S)-pyrrolidine-2-carbonyl)-benzenesulfonamide] | 0.03 | 7.31 | 50 | 3.94 | 26.8
4 | Nc1nc(Nc2ccc(S(=O)(=O)NC(=O)[C@@H](N)CC(=O)O)cc2)nn1C(=O)c1c(F)cccc1F [Compound 17, (S)-3-amino-4-{4-[5-amino-1-(2,6-difluoro-benzoyl)-1H-[1,2,4]triazol-3-ylamino]-benzenesulfonylamino}-4-oxo-butyric acid] | 0.09 | 1.56 | 20 | 28.4 | > 100
5 | CCCCC(=O)NS(=O)(=O)c1ccc(Nc2nc(N)n(C(=O)c3c(F)cccc3F)n2)cc1 [Compound 18, 4-[5-amino-1-(2,6-difluoro-benzoyl)-1H-[1,2,4]triazol-3-ylamino]-N-pentanoyl-benzenesulfonamide] | 0.47 | 1.54 | 5 | > 100 | > 100
6 | CCCC(=O)NS(=O)(=O)c1ccc(Nc2nc(N)n(C(=O)c3c(F)cccc3F)n2)cc1 [Compound 19, 4-[5-amino-1-(2,6-difluoro-benzoyl)-1H-[1,2,4]triazol-3-ylamino]-N-butyryl-benzenesulfonamide] | 0.05 | 0.77 | 5 | 11.6 | 24.1

— patent US7888380B2, “1,2,4-Triazolylaminoaryl (heteroaryl) sulfonamide derivatives” (Janssen Pharmaceutica, N.V., priority 2004, dated 2011)
